Reference: ChEMBL document CHEMBL1146431, “Isolation and structure elucidation of ardisenone: a new, cytotoxic alkenylphenol from Ardisia iwahigensis” (J Nat Prod, 1997)
In brackets after ≈: the same amount, converted by molar mass.

Key:
Format in all cases: functional, cell-based
[1] = Cytotoxicity against human BC1 cells by SRB assay
[2] = tested on: Lu1; assay: Cytotoxicity against human Lu1 cells by SRB assay
[3] = tested on: Col2; assay: Cytotoxicity against human Col2 cells by SRB assay
[4] = tested on: KB; assay: Cytotoxicity against human KB cells by SRB assay
[5] = Cytotoxicity against human vinblastine-resistant KBV1 cells by SRB assay in presence of vinblastine; details: KB-V1
[6] = Cytotoxicity against human vinblastine-resistant KBV1 cells by SRB assay in absence of vinblastine; details: KB-V1
[7] = tested on: LNCaP; assay: Cytotoxicity against human LNCAP cells by SRB assay

For `COc1cc(O)cc(CC(=O)CCC/C=C\CCCCCCCCC(=O)c2cc(O)cc(OC)c2)c1` [ARDISENONE], the IC50 [1] was 8.5 µg/mL (≈ 17.1 µM), the IC50 [2] was 4.9 µg/mL (≈ 9.87 µM) and the IC50 [3] was 15 µg/mL (≈ 30.2 µM). It also gave an IC50 [4] of 13 µg/mL (≈ 26.2 µM), an IC50 [5] of 8 µg/mL and an IC50 [6] of 6.9 µg/mL (≈ 13.9 µM). The IC50 [7] was 11 µg/mL (≈ 22.1 µM).
